Assay: release experiments with pure active compound (I) and with state-of-the-art preparations
Format: physicochemical
Conditions: release experiments using pure active compound (I)
Source text: If those preparations known from the state of the art are applied to the active compound (I) described here, it has unexpectedly been shown that there is no immediate release of the active compound but that there is a markedly delayed release which is therapeutically not desired.

With Cc1nc(N(C)C(=O)Cc2ccc(-c3ccccn3)cc2)sc1S(N)(=O)=O [active compound (I), N-[5-(Aminosulfonyl)-4-methyl-1,3-thiazol-2-yl]-N-methyl-2-[4-(2-pyridinyl)phenyl]acetamide] the “release behavior of pure active compound (in words)” value was ““clumping” or a gel formation”.

— US8784887B2, “Pharmaceutical preparation of N-[5-(aminosulfonyl)-4-methyl-1,3-thiazol-2-yl]-N-methyl-2-[4-(2-pyridinyl)phenyl]acetamide” (Aicuris GmbH & Co. KG, priority 2005, dated 2014)
